US8299048B2, “Hexahydrocyclopentyl[f]indazole sulfonamides and derivatives thereof as selective glucocorticoid receptor modulators” (Merck Sharp & Dohme Corp., priority 2008, dated 2012)

Target: T1, human GR (Homo sapiens, UniProt P04150)
T1 sequence (P04150 1-777): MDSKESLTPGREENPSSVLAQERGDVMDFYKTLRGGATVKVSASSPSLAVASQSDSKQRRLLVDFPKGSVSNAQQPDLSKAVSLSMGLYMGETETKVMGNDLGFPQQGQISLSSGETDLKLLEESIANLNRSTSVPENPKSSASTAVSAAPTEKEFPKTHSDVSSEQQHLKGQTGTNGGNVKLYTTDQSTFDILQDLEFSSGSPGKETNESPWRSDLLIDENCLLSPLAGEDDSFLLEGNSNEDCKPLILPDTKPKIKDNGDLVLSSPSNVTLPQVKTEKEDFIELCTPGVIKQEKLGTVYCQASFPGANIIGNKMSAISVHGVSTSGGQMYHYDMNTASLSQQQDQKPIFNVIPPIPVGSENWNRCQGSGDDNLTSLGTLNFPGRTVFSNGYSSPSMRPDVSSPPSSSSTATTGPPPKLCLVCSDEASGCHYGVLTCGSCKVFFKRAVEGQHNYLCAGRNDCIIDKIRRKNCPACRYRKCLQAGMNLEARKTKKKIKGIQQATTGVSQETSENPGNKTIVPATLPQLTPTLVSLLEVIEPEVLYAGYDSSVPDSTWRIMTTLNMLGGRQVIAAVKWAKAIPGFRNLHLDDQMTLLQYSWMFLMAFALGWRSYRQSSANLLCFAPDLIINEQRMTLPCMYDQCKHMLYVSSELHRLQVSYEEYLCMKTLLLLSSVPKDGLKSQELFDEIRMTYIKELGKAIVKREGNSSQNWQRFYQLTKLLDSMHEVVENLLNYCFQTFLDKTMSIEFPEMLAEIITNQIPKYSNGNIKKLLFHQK
Test: Trans-Activation Modulation of Glucocorticoid Receptor (GRAMMER), MMTV-LUC reporter, agonist mode
Format: cell-based
Design: endogenous in cells
Conditions: for Emax: A549, A549 cells, maximum activity, read-out: Transactivation A549 Cells GRAMMER Emax; for EC50: A549 cells, inflection point, read-out: Transactivation A549 Cells GRAMMER IP
In short: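 Readout is luciferase from a modified MMTV LTR promoter after 24 h compound exposure alongside 10 nM dexamethasone (100% activity reference), DMSO ≤1%.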

Structure (SMILES)	Emax [%]	EC50 [µM]
C[C@]12Cc3cnn(-c4ccc(F)cc4)c3C=C1CC[C@@H]2CN(CC#N)S(=O)(=O)c1cccc(C#N)c1 [Example 36, 3-cyano-N-(cyanomethyl)-N-{[(4αR,5S)-1-(4-fluorophenyl)-4α-methyl-1,4,4α,5,6,7-hexahydrocyclopenta[f]indazol-5-yl]methyl}benzenesulfonamide]	22.7	0.745
Cn1cnc(S(=O)(=O)N(CC#N)C[C@H]2CCC3=Cc4c(cnn4-c4ccc(F)cc4)C[C@@]32C)c1 [Example 37, N-(cyanomethyl)-N-{[(4αR,5S)-1-(4-fluorophenyl}-4α-methyl-1,4,4α,5,6,7-hexahydrocyclopenta[f]indazol-5-yl]methyl}-1-methyl-1H-imidazole-4-sulfonamide]	2.8	2.19
C[C@]12Cc3cnn(-c4ccc(F)cc4)c3C=C1CC[C@@H]2CN(CC#N)S(=O)(=O)c1ccc(Oc2cccc(Cl)c2C#N)cc1 [Example 38, 4-(3-chloro-2-cyanophenoxy)-N-(cyanomethyl)-N-{[(4αR,5S)-1-(4-fluorophenyl)-4α-methyl-1,4,4α,5,6,7-hexahydrocyclopenta[f]indazol-5-yl]methyl}benzenesulfonamide]	1.3	5
CN1CCOc2cc(S(=O)(=O)N(CC#N)C[C@H]3CCC4=Cc5c(cnn5-c5ccc(F)cc5)C[C@@]43C)ccc21 [Example 39, N-(cyanomethyl)-N-{[(4αR,5S)-1-(4-fluorophenyl)-4α-methyl-1,4,4α,5,6,7-hexahydrocyclopenta[f]indazol-5-yl]methyl}-4-methyl-3,4-dihydro-2H-1,4-benzoxazine-7-sulfonamide]	1.7	5
C[C@]12Cc3cnn(-c4ccc(F)cc4)c3C=C1CC[C@@H]2CN(CC#N)S(=O)(=O)c1cccc2ccccc12 [Example 40, N-(cyanomethyl)-N-{[(4αR,5S)-1-(4-fluorophenyl)-4α-methyl-1,4,4α,5,6,7-hexahydrocyclopenta[f]indazol-5-yl]methyl}naphthalene-1-sulfonamide]	3.2	0.0828
C[C@]12Cc3cnn(-c4ccc(F)cc4)c3C=C1CC[C@@H]2CN(CC#N)S(=O)(=O)c1cc(OCC(F)(F)F)ccc1OCC(F)(F)F [Example 41, N-(cyanomethyl)-N-{[(4αR,5S)-1-(4-fluorophenyl)-4α-methyl-1,4,4α,5,6,7-hexahydrocyclopenta[f]indazol-5-yl]methyl}-2,5-bis(2,2,2-trifluoroethoxy)benzenesulfonamide]	60.3	0.124
C[C@]12Cc3cnn(-c4ccc(F)cc4)c3C=C1CC[C@@H]2CN(CC#N)S(=O)(=O)c1ccc(-c2ccccc2)cc1 [Example 42, N-(cyanomethyl)-N-{[(4αR,5S)-1-(4-fluorophenyl)-4α-methyl-1,4,4α,5,6,7-hexahydrocyclopenta[f]indazol-5-yl]methyl}biphenyl-4-sulfonamide]	4.2	0.228
C[C@]12Cc3cnn(-c4ccc(F)cc4)c3C=C1CC[C@@H]2CN(CC#N)S(=O)(=O)c1ccccc1F [Example 43, N-(cyanomethyl)-2-fluoro-N-{[(4αR,5S)-1-(4-fluorophenyl)-4α-methyl-1,4,4α,5,6,7-hexahydrocyclopenta[f]indazol-5-yl]methyl}benzenesulfonamide]	36	0.47
C[C@]12Cc3cnn(-c4ccc(F)cc4)c3C=C1CC[C@@H]2CN(CC#N)S(=O)(=O)c1cc(F)cc(F)c1 [Example 44, N-(cyanomethyl)-3,5-difluoro-N-{[(4αR,5S)-1-(4-fluorophenyl)-4α-methyl-1,4,4α,5,6,7-hexahydrocyclopenta[f]indazol-5-yl]methyl}benzenesulfonamide]	44.8	0.622
C[C@]12Cc3cnn(-c4ccc(F)cc4)c3C=C1CC[C@@H]2CN(CC#N)S(=O)(=O)c1ccc(Oc2ccccn2)cc1 [Example 45, N-(cyanomethyl)-N-{[(4αR,5S)-1-(4-fluorophenyl)-4α-methyl-1,4,4α,5,6,7-hexahydrocyclopenta[f]indazol-5-yl]methyl}-4-(pyridin-2-yloxy)benzenesulfonamide]	11.4	2.89
C[C@]12Cc3cnn(-c4ccc(F)cc4)c3C=C1CC[C@@H]2CN(CC#N)S(=O)(=O)c1ccc(F)cc1 [Example 46, N-(cyanomethyl)-4-fluoro-N-{[(4αR,5S)-1-(4-fluorophenyl)-4α-methyl-1,4,4α,5,6,7-hexahydrocyclopenta[f]indazol-5-yl]methyl}benzenesulfonamide]	83.3	0.373
C[C@]12Cc3cnn(-c4ccc(F)cc4)c3C=C1CC[C@@H]2CN(CC#N)S(=O)(=O)c1cc(F)c(F)cc1F [Example 47, N-(cyanomethyl)-2,4,5-trifluoro-N-{[(4αR,5S)-1-(4-fluorophenyl)-4α-methyl-1,4,4α,5,6,7-hexahydrocyclopenta[f]indazol-5-yl]methyl}benzenesulfonamide]	58.3	0.635
C[C@]12Cc3cnn(-c4ccc(F)cc4)c3C=C1CC[C@@H]2CN(CC#N)S(=O)(=O)Cc1ccccc1 [Example 48, N-(cyanomethyl)-N-{[(4αR,5S)-1-(4-fluorophenyl)-4α-methyl-1,4,4α,5,6,7-hexahydrocyclopenta[f]indazol-5-yl]methyl}-1-phenylmethanesulfonamide]	8.8	0.995
Cc1ccccc1S(=O)(=O)N(CC#N)C[C@H]1CCC2=Cc3c(cnn3-c3ccc(F)cc3)C[C@@]21C [Example 49, N-(cyanomethyl)-N-{[(4αR,5S)-1-(4-fluorophenyl)-4α-methyl-1,4,4α,5,6,7-hexahydrocyclopenta[f]indazol-5-yl]methyl}-2-methylbenzenesulfonamide]	14.1	0.955
C[C@]12Cc3cnn(-c4ccc(F)cc4)c3C=C1CC[C@@H]2CN(CC#N)S(=O)(=O)c1ccccc1Cl [Example 50, 2-chloro-N-(cyanomethyl)-N-{[(4αR,5S)-1-(4-fluorophenyl)-4α-methyl-1,4,4α,5,6,7-hexahydrocyclopenta[f]indazol-5-yl]methyl}benzenesulfonamide]	15.1	0.949
C[C@]12Cc3cnn(-c4ccc(F)cc4)c3C=C1CC[C@@H]2CN(CC#N)S(=O)(=O)c1ccc(F)cc1F [Example 51, N-(cyanomethyl)-2,4-difluoro-N-{[(4αR,5S)-1-(4-fluorophenyl)-4α-methyl-1,4,4α,5,6,7-hexahydrocyclopenta[f]indazol-5-yl]methyl}benzenesulfonamide]	83.3	0.433
Cc1nn(C)c(Cl)c1S(=O)(=O)N(CC#N)C[C@H]1CCC2=Cc3c(cnn3-c3ccc(F)cc3)C[C@@]21C [Example 52, 5-chloro-N-(cyanomethyl)-N-{[(4αR,5S)-1-(4-fluorophenyl)-4α-methyl-1,4,4α,5,6,7-hexahydrocyclopenta[f]indazol-5-yl]methyl}-1,3-dimethyl-1H-pyrazole-4-sulfonamide]	31.9	0.57
C[C@]12Cc3cnn(-c4ccc(F)cc4)c3C=C1CC[C@@H]2CN(CC#N)S(=O)(=O)c1ccccc1-c1ccccc1 [Example 53, N-(cyanomethyl)-N-{[(4αR,5S)-1-(4-fluorophenyl)-4α-methyl-1,4,4α,5,6,7-hexahydrocyclopenta[f]indazol-5-yl]methyl}biphenyl-2-sulfonamide]	18.1	0.866
C[C@]12Cc3cnn(-c4ccc(F)cc4)c3C=C1CC[C@@H]2CN(CC#N)S(=O)(=O)c1ccccc1C(F)(F)F [Example 54, N-(cyanomethyl)-N-{[(4αR,5S)-1-(4-fluorophenyl)-4α-methyl-1,4,4α,5,6,7-hexahydrocyclopenta[f]indazol-5-yl]methyl}-2-(trifluoromethyl)benzenesulfonamide]	8.2	1.08
C[C@]12Cc3cnn(-c4ccc(F)cc4)c3C=C1CC[C@@H]2CN(CC#N)S(=O)(=O)c1ccccc1C#N [Example 55]	47.7	0.549
Cc1oncc1S(=O)(=O)N(CCO)C[C@H]1CCC2=Cc3c(cnn3-c3ccc(F)cc3)C[C@@]21C [Example 56, N-{[(4αR,5S)-1-(4-fluorophenyl)-4α-methyl-1,4,4α,5,6,7-hexahydrocyclopenta[f]indazol-5-yl]methyl}-N-(2-hydroxyethyl)-5-methylisoxazole-4-sulfonamide]	50.9	0.805
C[C@]12Cc3cnn(-c4ccc(F)cc4)c3C=C1CC[C@@H]2CN(CCO)S(=O)(=O)c1cc(Cl)c(Cl)s1 [Example 58, 4,5-dichloro-N-{[(4αR,5S)-1-(4-fluorophenyl)-4α-methyl-1,4,4α,5,6,7-hexahydrocyclopenta[f]indazol-5-yl]methyl}-N-(2-hydroxyethyl)thiophene-2-sulfonamide]	3.1	1.08
C[C@]12Cc3cnn(-c4ccc(F)cc4)c3C=C1CC[C@@H]2CN(CCO)S(=O)(=O)c1ccc(F)c(F)c1 [Example 59]	41.3	0.437
